Molecules are shown by their SMILES. Entries after “also recorded” stand apart in the source; their conditions may differ.

Assay [1] relates to RTV-964 (patient sample 98-964). Briefly: Phenotypic susceptibility assay, RTV-964. It is filed as cell-based, HIV-1. Particulars: RTV-964, patient-derived pool. The protocol:
Transfections were performed using a calcium-phosphate precipitation procedure. […] Cell lysates were assayed for luciferase activity (FIG. 3).
The drug inhibition curves are shown in (FIG. 3).
A resistance test vector was constructed as described in Example 1 from a patient sample designated 98-964. […] Isolation of viral RNA and RT/PCR was used to generate a patient derived segment that comprised viral sequence coding for all of PR and aa 1-313 of RT. The PDS was inserted into an indicator gene viral vector to generate a resistance test vector designated RTV-964. RTV-964 was then tested in a phenotypic assay to determine accurately and quantitatively the level of susceptibility to a panel of anti-retroviral drugs. […] An IC50 was determined for the resistance test vector pool for each drug tested. The pattern of susceptibility to all of the drugs tested was examined and compared to known patterns of susceptibility.

The test system of another assay is V106A-V189L-RTV. Briefly: Phenotypic susceptibility assay, V106A-V189L-RTV. The assay is classed as cell-based, HIV-1. Conditions: site directed mutant. From the text:
(§1) The resistance test vectors containing a functional luciferase gene cassette were constructed and host cells were transfected with the resistance test vector DNA. The resistant test vectors contained patient-derived reverse transcriptase and protease sequences that were either susceptible or resistant to the antiretroviral agents, such as nucleoside reverse transcriptase inhibitors, non-nucleoside reverse transcriptase inhibitors and protease inhibitors. The resistance test vector viral particles produced by transfecting the resistance test vector DNA into host cells, either in the presence or absence of protease inhibitors, were used to infect target host cells grown either in the absence of NRTI or NNRTI or in the presence of increasing concentrations of the drug. The amount of luciferase activity produced in infected target host cells in the presence of drug was compared to the amount of luciferase produced in infected target host cells in the absence of drug. Drug resistance was measured as the amount of drug required to inhibit by 50% the luciferase activity detected in the absence of drug (inhibitory concentration 50%, IC50). The IC50 values were determined by plotting percent drug inhibition vs. log10 drug concentration.
(§2) Host cells were seeded in 10-cm-diameter dishes and were transfected several days after plating with resistance test vector plasmid DNA and the envelope expression vector. Transfections were performed using a calcium-phosphate precipitation procedure. The cell culture media containing the DNA precipitate was replaced with fresh medium, from one to 24 hours, after transfection. Cell culture media containing resistance test vector viral particles was harvested one to four days after transfection and was passed through a […] filter before being stored at −80° C. HIV capsid protein (p24) levels in the harvested cell culture media were determined by an EIA method as described by the manufacturer (SIAC; Frederick, Md.). […] The inhibitory effect of the drug was determined using the following equation: […]

The test system of assay [2] is patient 487 virus (RT M184V, K103N). Briefly: Phenotypic susceptibility assay, patient 487. Conditions: patient 487, FIG. 4. The assay is classed as cell-based, HIV.
From the text: as §1, with “The amount of luciferase activity produced in infected target host cells in the presence of drug was compared to the amount of luciferase produced in infected target host cells in the absence of drug. Drug resistance was measured as the amount of drug required to inhibit by 50% the luciferase activity detected in the absence of drug (inhibitory concentration 50%, IC50).” left out
(§3) Host cells were seeded in 10-cm-diameter dishes and were transfected several days after plating with resistance test vector plasmid DNA and the envelope expression vector. […] HIV capsid protein (p24) levels in the harvested cell culture media were determined by an EIA method as described by the manufacturer (SIAC; Frederick, Md.). […] The inhibitory effect of the drug was determined using the following equation: […]

Assay [3] deals with RTV-1058 Clone 5 (L100I and K103N). Briefly: Phenotypic susceptibility assay, RTV-1058 clone 5. The assay is classed as cell-based, HIV-1. The protocol: (§4) The resistance test vectors containing a functional luciferase gene cassette were constructed and host cells were transfected with the resistance test vector DNA. The resistant test vectors contained patient-derived reverse transcriptase and protease sequences that were either susceptible or resistant to the antiretroviral agents, such as nucleoside reverse transcriptase inhibitors, non-nucleoside reverse transcriptase inhibitors and protease inhibitors. […] The IC50 values were determined by plotting percent drug inhibition vs. log10 drug concentration.
as §3
(§5) A resistance test vector was constructed as described in Example 1 from a patient sample designated 98-1058. […] An IC50 was determined for the resistance test vector pool for each drug tested.

Assay [4] relates to RTV-268 (patient sample 97-268; P236L). Briefly: Phenotypic susceptibility assay, RTV-268. Particulars: RTV-268 / patient 268. It is filed as cell-based, HIV-1.
From the text: as §1
as §2, with “Md.). Before infection, target cells (293 and 293/T) were plated in cell culture media. Control infections were performed using cell culture media from mock transfections (no DNA) or transfections containing the resistance test vector plasmid DNA without the envelope expression plasmid. One to three or more days after infection the media was removed and cell lysis buffer (Promega) was added to each well.” for “Md.).”
(§6) where RLUluc [drug] is the relative light unit of luciferase activity in infected cells in the presence of drug and RLUluc is the Relative Light Unit of luciferase activity in infected cells in the absence of drug. IC50 values were obtained from the sigmoidal curves that were generated from the data by plotting the percent inhibition of luciferase activity vs. the log10 drug concentration.
A resistance test vector was constructed as described in Example 1 from a patient sample designated 97-268. […] Isolation of viral RNA and RT/PCR was used to generate a patient derived segment that comprised viral sequences coding for all of PR and amino acids 1-313 of RT. The patient derived segment was inserted into a indicator gene viral vector to generate a resistance test vector designated RTV-268. RTV-268 was then tested using the phenotypic susceptibility assay to determine accurately and quantitatively the level of susceptibility to a panel of anti-retroviral drugs. […] An IC50 was determined for each drug tested. Susceptibility of the patient virus to each drug was examined and compared to the susceptibility of a reference virus. […] The sample was examined further for genotypic changes associated with the pattern of susceptibility.

The test system of assay [5] is V106A-RTV (HIV reverse transcriptase V106A). Briefly: Phenotypic susceptibility assay, V106A-RTV. Particulars: site directed mutant. It is filed as cell-based, HIV-1.
From the text: as §1, §2

The test system of assay [6] is RTV-1058 Clone 4 (K103N and Y188L). Briefly: Phenotypic susceptibility assay, RTV-1058 clone 4. The assay is classed as cell-based, HIV-1. The protocol: as §4, §3, §5
In assay [7] the test system is K101E-RTV (HIV reverse transcriptase K101E). Kind of assay: Phenotypic susceptibility assay, K101E-RTV. It is filed as cell-based, HIV-1.
From the text: as §1
as §2, with “Md.). Before infection, target cells (293 and 293/T) were plated in cell culture media. Control infections were performed using cell culture media from mock transfections (no DNA) or transfections containing the resistance test vector plasmid DNA without the envelope expression plasmid. One to three or more days after infection the media was removed and cell lysis buffer (Promega) was added to each well.” for “Md.).”
as §6
The K101E and G190S mutations were introduced alone and in combination into resistance test vectors using the mega-primer method for site-directed mutagenesis (Sakar and Sommar, Ibid.). Resistance test vectors containing the K101E mutation (K101E-RTV), the G190S mutation (G190S-RTV) were then tested using the phenotypic assay described earlier and the results were compared to those determined using a genetically defined resistance test vector that was wild type at positions 101 and 190. […]

Setting [8] is: printed in the K101E-RTV sentence of b302, second set of values.

As for `CC(C)Nc1cccnc1N1CCN(C(=O)c2cc3cc(NS(C)(=O)=O)ccc3[nH]2)CC1` [delavirdine], in assay [1], the “fold decrease in susceptibility (IC50)” value came to 10 fold. For the same compound, the “fold loss of susceptibility compared to wild type control RTV” value (“fold loss … to wild type control RTV” for short) is 3 fold with V106A-V189L-RTV, 5 fold in assay [5] and 5 fold in assay [7] ({}). Moreover, in assay [2], the “susceptibility/resistance profile” value is “increased resistance”. In addition, the “fold loss of susceptibility (IC50)” value is recorded as 250 fold in assay [3] and 85 fold in assay [6]. Moreover, the “susceptibility/resistance compared to reference virus” value in assay [4] was “resistant to delavirdine; also recorded: phenotypic resistance to delavirdine”.
For `O=C1Nc2ccc(Cl)cc2[C@@](C#CC2CC2)(C(F)(F)F)O1` [efavirenz], the “fold loss … to wild type control RTV” value with V106A-V189L-RTV was found to be 1 fold; in assay [5], 1.7 fold; in assay [7] (setting [8]), 30 fold; in assay [7] ({}) it was 5 fold.
For `Cc1ccnc2c1NC(=O)c1cccnc1N2C1CC1` [nevirapine], the “fold decrease in susceptibility (IC50)” value in assay [1] was determined as 750 fold. In addition, the “fold loss … to wild type control RTV” value in the assay with V106A-V189L-RTV was found to be 50 fold; in assay [5], 60 fold; in assay [7] (setting [8]) it was 55 fold; in assay [7] ({}), 12 fold. The “susceptibility/resistance profile” value in assay [2] is recorded as “increased resistance”. Moreover, the “fold loss of susceptibility (IC50)” value in assay [3] is given as 120 fold; in assay [6], “greater than 800 fold”. Also, in assay [4], the “susceptibility/resistance compared to reference virus” value is “no change in nevirapine susceptibility; also recorded: nevirapine susceptibility was the same as wild type”.
